The text below walks through data of patent US7915050B2, “Regulatory genes for plant differentiation and growth, and use of the same” (National University Corporation Nagoya University, priority 2005, dated 2011).

Assay [1] has as its target T1, AtGID1c in the presence of RGA (Arabidopsis thaliana, UniProt Q940G6).
T1 construct: made in house; host or cells: E. coli (stated for AtGID1)
T1 sequence (Q940G6 1-344): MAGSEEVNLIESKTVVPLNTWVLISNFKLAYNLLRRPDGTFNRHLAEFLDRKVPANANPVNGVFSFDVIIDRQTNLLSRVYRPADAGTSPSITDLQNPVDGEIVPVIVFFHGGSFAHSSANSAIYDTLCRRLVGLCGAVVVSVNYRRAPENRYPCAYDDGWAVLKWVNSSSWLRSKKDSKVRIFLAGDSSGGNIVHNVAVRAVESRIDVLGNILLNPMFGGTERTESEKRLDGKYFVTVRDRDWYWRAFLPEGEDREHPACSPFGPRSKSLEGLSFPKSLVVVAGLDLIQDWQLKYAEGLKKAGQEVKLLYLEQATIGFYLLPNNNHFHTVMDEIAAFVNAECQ
T1 sequence (Q9SLH3 1-587 partner): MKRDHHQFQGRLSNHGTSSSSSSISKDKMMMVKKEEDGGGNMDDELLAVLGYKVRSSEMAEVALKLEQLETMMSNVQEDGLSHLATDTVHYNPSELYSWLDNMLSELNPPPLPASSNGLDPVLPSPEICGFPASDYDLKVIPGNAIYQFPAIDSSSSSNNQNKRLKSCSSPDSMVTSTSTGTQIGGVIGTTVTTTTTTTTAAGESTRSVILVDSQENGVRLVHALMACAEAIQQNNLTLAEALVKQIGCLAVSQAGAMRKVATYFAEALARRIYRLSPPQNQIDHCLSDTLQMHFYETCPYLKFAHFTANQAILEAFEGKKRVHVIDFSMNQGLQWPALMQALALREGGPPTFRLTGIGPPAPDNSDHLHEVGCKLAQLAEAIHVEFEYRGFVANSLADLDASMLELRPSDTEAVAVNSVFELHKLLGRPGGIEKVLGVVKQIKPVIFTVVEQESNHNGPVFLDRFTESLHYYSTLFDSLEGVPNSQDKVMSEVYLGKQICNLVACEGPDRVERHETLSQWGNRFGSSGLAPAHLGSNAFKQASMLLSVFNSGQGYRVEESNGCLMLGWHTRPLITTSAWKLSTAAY
The assay can be described thus: Scatchard analysis of AtGID1c-GA binding in the presence of RGA. On the procedure:
Panel A) depicts AtGID1-AtDELLA interaction in the presence of GA in two types of yeast hybrid (Y2H) assays. Each AtGID1 was used as a bait while AtDELLA was a prey. GA4 (10^−5 M) was added to the medium. The bars indicates β-galactosidase activity when o-nitrophenol-β-D-galactopyranoside was used as a substrate (Assay B). The growth of each transformant in the defined medium for 2 days (Assay A) is shown beneath of each bar graph. The experiment was carried out in quadruplicate. The SD value shown in the figure was determined from three measurements. Panel B) depicts the dose response in AtGID1-RGA interaction in Assay B of Y2H. GA4 (10^−5 to 10^−9 M) was added to the medium. The experiment was conducted in […]. The SD value shown in the figure was determined from three measurements. Panel C) depicts the results of an evaluation of the in vitro GA-binding potency of AtGID1 using AtDELLA. […] GAI (G) or RGA (R) was added, and then the GA-binding activity in each reaction mixture was measured according to the standard method. […] The SD value was determined from three measurements. […]
Next, whether AtDELLAs exert some kind of influence on the GA-binding activity of AtGID1s was examined in vitro. After labeled 16,17-dihydro-GA4 and AtGID1s were combined, AtDELLAs were added to the solutions, and the GA-binding activity was measured. […]

Assay [2] has as its system GA-deficient Arabidopsis mutant ga1-3 seeds. The assay can be described thus: Germination of GA-deficient ga1-3 seeds. It counts as in vivo. The protocol:
The germination of GA-deficient gal-3 seeds in a medium containing 16,17-dihydro-GA4 was tested, according to the method of Yamaguchi et al. (Plant Cell, 10, 2115-2126, […]). Approximately 70 to 80 seeds were used per each dish. Three independent measurements were carried, and the standard deviation (SD) was determined from these measurements. The seeds were assessed for germination at 23° C. on day 4, after cold treatment at 4° C. for 3 days. GA4 was used as a reference.

Take `CC1C[C@]23C[C@H]1CCC2[C@]12CC[C@H](O)[C@](C)(C(=O)O1)[C@H]2[C@@H]3C(=O)O` (some centres unmarked) [H2-GA4, 16,17-dihydro-GA4]: in assay [1], the Kd turned out to be 12 nM. For the same compound, the “physiological effect on germination relative to GA4” value in assay [2] is “about 1/10”.

Broadly, the Kd is the constant that tells how readily two partners part at equilibrium.
